Values joined by “and” are separate entries in the source; they are usually repeats but may differ in a detail not shown here. Equal entries are not always repeated. Where two headings read alike, the source gives them in different places.
Target: HIV-1LAI envelope gp120 (Human immunodeficiency virus type 1 group M subtype B, UniProt P03377)
Format: binding
Settings: for Counts per 20′ Average-background: CCR5 18-mer scan, radiolabeled HIV-1LAI gp120; for Relative % of Control: mean of two syntheses and binding experiments ± average deviation, wild-type = 100%; for number of radioactive decays (counts) counted: human CD4 21-mer scan, empty control 2075
[1] = STRL33 18-mer scan, background subtracted, first of two count columns
[2] = STRL33 18-mer scan, background subtracted, second of two count columns
[3] = Panel F, sequential alanine replacements of CD4 polypeptides, duplicate series, empty control 569
[4] = Panel E, 9-mers and 12-mers of CD4, empty control 571
[5] = Panel C, 15-mers and 18-mers of CD4, empty control 556
[6] = Panel A, 21-mers of CD4, empty control 515 and 617
[7] = CXCR4 18-mer scan, background subtracted, empty control 0
[8] = CXCR4 18-mer scan, empty control 412
[9] = Panel D, 9-mers and 12-mers of CD4, empty control […]
[10] = Panel B, 15-mers and 18-mers of CD4, empty control 575

How did the “Counts per 20′ Average-background” value (background subtracted) turn out when AARLLPPLYSLVFIFGFV [CCR5 segment 29-46] was run?
The value was 33 counts per 20′.

For “ACLNPVLYAFVSLKFRKN [STRL33 segment 281-298]”, which “radioactive counts recorded in twenty minutes” value (“radioactive counts recorded” below) [1] is on record?
Its value is 4173.5 counts.

What about the “radioactive counts recorded” value [2] of the same sequence?
The value was 4515.5 counts.

“ADYQVSSPIYDINYYTSE [CCR5 (1-18) variant M1A]” was tested. Which “Relative % of Control” value (CCR5 (1-18) alanine variants) did it give?
The value was 167 ± 4%.

Which “Relative % of Control” value (CXCR4 (1-18) alanine variants) does the source give for “AEGISIYTSDNYTEEMGS [CXCR4 (1-18) variant M1A]” here?
The value was 118 ± 18%.

With AEHDYHEDYGFSSFNDSS as the sequence, how does the “Binding Results For Window Length (counts bound-background), 9” value (STRL33 amino terminus, 9-mer starting at the first residue of the printed sequence, background subtracted) read?
The value was 354 counts.

And the “Binding Results For Window Length (counts bound-background), 12” value (STRL33 amino terminus, 12-mer starting at the first residue of the printed sequence, background subtracted)?
The value was 697 counts.

What about the “Binding Results For Window Length (counts bound-background), 15” value (STRL33 amino terminus, 15-mer starting at the first residue of the printed sequence, background subtracted) of the same sequence?
The value was 1095 counts.

What about the “Binding Results For Window Length (counts bound-background), 18” value (STRL33 amino terminus, 18-mer starting at the first residue of the printed sequence, background subtracted) of the same sequence?
Its value is 1014 counts.

How did the “COUNTS of radiolabeled gp120 retained” value (Panel G, alanine replacements and serial truncations (Z) of CD4 polypeptides, empty control 580) turn out when AEQVEFSFPLAFTVE was run?
The value was 18042 counts and 18546 counts.

For AEVQLLVFGLTANSD, which “COUNTS of radiolabeled gp120 retained” value [3] is on record?
The value was 16220 counts and 14590 counts.

With “AFLQFSKVFLPCMYLVVF [STRL33 segment 25-42]” as the sequence, how does the “radioactive counts recorded” value [1] read?
Its value is 1421.5 counts.

What about the “radioactive counts recorded” value [2] of the same sequence?
Its value is 1359.5 counts.

For AFQKASSIV, which “COUNTS of radiolabeled gp120 retained” value [4] is on record?
The value was 595 counts.

AFQKASSIVYKK was tested. Which “COUNTS of radiolabeled gp120 retained” value [4] did it give?
Its value is 597 counts.

AFQKASSIVYKKEGE was tested. Which “COUNTS of radiolabeled gp120 retained” value [5] did it give?
Its value is 544 counts.

For AFQKASSIVYKKEGEQVE, which “COUNTS of radiolabeled gp120 retained” value [5] is on record?
The value was 514 counts.

With AFQKASSIVYKKEGEQVEFSF as the sequence, how does the “COUNTS of radiolabeled gp120 retained” value [6] read?
The value was 3775 counts.

For AFTVEKLTG, which “COUNTS of radiolabeled gp120 retained” value [4] is on record?
Its value is 517 counts.

Which “COUNTS of radiolabeled gp120 retained” value [4] does the source give for AFTVEKLTGSGE here?
The value was 511 counts.

AFTVEKLTGSGELWW was tested. Which “COUNTS of radiolabeled gp120 retained” value [5] did it give?
Its value is 586 counts.

How did the “COUNTS of radiolabeled gp120 retained” value [5] turn out when AFTVEKLTGSGELWWQAE was run?
The value was 788 counts.

What does the source list for “AFTVEKLTGSGELWWQAERAS [human CD4 226-246]”?
COUNTS of radiolabeled gp120 retained [6]: 1739 counts; number of radioactive decays (counts) counted: 3992 counts

“AFVSLKFRKNFWKLVKDI [STRL33 segment 289-306]” was tested. Which “radioactive counts recorded” value [1] did it give?
The value was 808.5 counts.

And the “radioactive counts recorded” value [2]?
The value was 1040.5 counts.

What does the source list for AGGFQKHRSLKIIFLVMA?
radioactive counts recorded in twenty minutes [1]: 340.5 counts; radioactive counts recorded in twenty minutes [2]: 260.5 counts

Which “number of radioactive decays (counts) counted” value does the source give for AGLLLFIGLGIFFCVRCRHRR here?
The value was 2099 counts.

Which “COUNTS of radiolabeled gp120 retained” value [3] does the source give for AHLLQGQSLTLTLES here?
Its value is 8602 counts and 5826 counts.

With AISDLFFLLTVPFWAHYA [CCR5 segment 73-90] as the sequence, how does the “Counts per 20′ Average-background” value (background subtracted) read?
The value was 41 counts per 20′.

With “AIVHATNSQRPRKLLAEK [CXCR4 segment 137-154]” as the sequence, how does the “radioactive counts recorded” value [7] read?
The value was 73 counts.

What about the “radioactive counts recorded” value [8] of the same sequence?
The value was 485 counts.

AKRFCKCCSIFQQEAPER [CCR5 segment 317-] was tested. Which “Counts per 20′ Average-background” value (background subtracted) did it give?
Its value is 64 counts per 20′.

“ALAFFHCCLNPILYAFLG [CXCR4 segment 289-306]” was tested. Which “radioactive counts recorded” value [7] did it give?
The value was 181 counts.

What about the “radioactive counts recorded” value [8] of the same sequence?
Its value is 593 counts.

Which “radioactive counts recorded” value [7] does the source give for “ALKTTVILILAFFACWLP [CXCR4 segment 237-254]” here?
Its value is 261 counts.

And the “radioactive counts recorded” value [8]?
The value was 673 counts.

How did the “COUNTS of radiolabeled gp120 retained” value [9] turn out when ANSDTHLLQ was run?
Its value is 642 counts.

Which “COUNTS of radiolabeled gp120 retained” value [9] does the source give for ANSDTHLLQGQS here?
The value was 559 counts.

ANSDTHLLQGQSLTL was tested. Which “COUNTS of radiolabeled gp120 retained” value [10] did it give?
The value was 542 counts.

For ANSDTHLLQGQSLTLTLE, which “COUNTS of radiolabeled gp120 retained” value [10] is on record?
The value was 1540 counts.

With APYNIVLLLNTFQEFFGL [CCR5 segment 249-] as the sequence, how does the “Counts per 20′ Average-background” value (background subtracted) read?
Its value is 1962 counts per 20′.

With “AQNALTSVSRGSSLKILS [CXCR4 segment 313-330]” as the sequence, how does the “radioactive counts recorded” value [7] read?
Its value is 147 counts.

What about the “radioactive counts recorded” value [8] of the same sequence?
The value was 559 counts.

How did the “COUNTS of radiolabeled gp120 retained” value [4] turn out when ASSIVYKKE was run?
The value was 600 counts.

How did the “COUNTS of radiolabeled gp120 retained” value [4] turn out when ASSIVYKKEGEQ was run?
The value was 523 counts.

How did the “COUNTS of radiolabeled gp120 retained” value [5] turn out when ASSIVYKKEGEQVEF was run?
The value was 589 counts.

How did the “COUNTS of radiolabeled gp120 retained” value [5] turn out when ASSIVYKKEGEQVEFSFP was run?
Its value is 701 counts.

Source: US20030068615A1, “Polypeptides that bind HIV gp120 and related nucleic acids, antibodies, compositions, and methods of use” (priority 1999, published 2003)
